Test results reported in patent US12454534B2, “Pyrrolo[2,3-b]pyrazines as HPK1 inhibitor and the use thereof” (BEIGENE, LTD., priority 2019, dated 2025).

How the values were obtained:
[1] = biological target: T1, HPK1 kinase (aa1-346, Life Technologies) (Homo sapiens, UniProt Q92918); experiment: HPK1 Kinase Activity Assay at 1 mM ATP (TR-FRET); assay type: biochemical; conditions: HPK1 40 nM, read-out: Enzymatic activity IC50
T1 construct: HPK1 kinase (aa1-346, Life Technologies); purchased Life Technologies
T1 sequence (Q92918 1-346): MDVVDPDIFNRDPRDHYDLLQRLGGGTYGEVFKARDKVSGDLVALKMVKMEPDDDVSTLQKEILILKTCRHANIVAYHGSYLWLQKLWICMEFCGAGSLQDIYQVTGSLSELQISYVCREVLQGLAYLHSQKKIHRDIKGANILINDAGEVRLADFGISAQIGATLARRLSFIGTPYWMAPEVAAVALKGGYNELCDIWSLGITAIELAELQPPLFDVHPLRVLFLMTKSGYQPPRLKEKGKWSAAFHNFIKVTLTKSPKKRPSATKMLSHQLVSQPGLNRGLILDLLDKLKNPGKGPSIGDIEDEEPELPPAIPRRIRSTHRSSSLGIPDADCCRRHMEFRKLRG
In short: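 HPK1 (aa1-346, 40 nM) pre-incubated 60 min at room temperature with compound (0-10 μM), then reacted 120 min with 1 mM ATP and 0.5 μM STK1 substrate in HEPES pH 7.0 with MgCl2. Phosphorylation read by TR-FRET (665/620 nm); IC50 from four-parameter logistic fit.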

[2] = system: HEK293 cells; experiment: HEK293 cell viability assay (CellTiter-Glo); assay type: cell-based; conditions: 3-day exposure, 0 to 10 μM
Procedure: Cytotoxicity on HEK293 Cells Proliferation (HEK293 Cell Viability Assay)
HEK293 cell line were used in this study. Cell lines were maintained in DMEM (Dulbecco's Modified Eagle Medium) supplemented with 10% fetal bovine serum (Thermo Fisher), 50 units/mL penicillin and streptomycin (Thermo Fisher) and kept at 37° C. in a humidified atmosphere containing 5% CO2 in air. Cell lines were reinstated from frozen stocks that were laid down within 50 passages from the original cells purchased. The growth-inhibitory activity of compounds in HEK293 cells was determined using CellTiter-Glo luminescent cell viability assay (Promega). 3000 cells per well were seeded into a 96-well plate to ensure logarithmic growth for 3 days treatment period. Cells were treated with a 10-point dilution series. The final compound concentration was from 0 to 10 μM. Following a 3-day exposure to the test compounds, 30 μL of CellTiter-Glo reagent was added into 100 μL cell culture medium per well. Mixture was mixed on an orbital shaker for 2 minutes to allow cell lysis, followed by 10 minutes of incubation at room temperature to allow development and stabilization of luminescent signal, which corresponded to the quantity of ATP and thus the quantity of metabolically active cells. Luminescent signal was measured using PHERAstar FS reader (BMG Labtech). IC50 values for cell viability were determined with Dotmatics.

Compound `Cc1cc(-c2cnc3[nH]cc(-c4ccc(C(=O)N(C)CC(C)(C)O)cc4)c3n2)cc2c1CCN(C)C2` [Example 38, 4-(2-(2,5-dimethyl-1,2,3,4-tetrahydroisoquinolin-7-yl)-5H-pyrrolo[2,3-b]pyrazin-7-yl)-N-(2-hydroxy-2-methylpropyl)-N-methylbenzamide] has an IC50 [1] of 65 nM and an IC50 [2] of 2190 nM.
In the case of `CN1CCc2c(cc(-c3cnc4[nH]cc(-c5ccc(C(=O)N(C)C)cc5)c4n3)cc2C(F)F)C1` [Example 95, 4-(2-(5-(difluoromethyl)-2-methyl-1,2,3,4-tetrahydroisoquinolin-7-yl)-5H-pyrrolo[2,3-b]pyrazin-7-yl)-N, N-dimethylbenzamide], the IC50 [1] is reported as 71 nM and the IC50 ([2]; Homo sapiens, HEK293, 72 h) is reported as 5180 nM.
With `Cc1cc(-c2c[nH]c3ncc(-c4cc(C)c5c(c4)CCN(C)C5)nc23)ccc1C(=O)N(C)C` [Example 126, 4-(2-(2,8-dimethyl-1,2,3,4-tetrahydroisoquinolin-6-yl)-5H-pyrrolo[2,3-b]pyrazin-7-yl)-N, N, 2-trimethylbenzamide] the IC50 [1] was 43 nM and the IC50 ([2]; Homo sapiens, HEK293, 72 h) was over 10000 nM.
`CCN1CCc2c(C)cc(-c3cnc4[nH]cc(-c5ccc(C(=O)N(C)C)c(C)c5)c4n3)cc2C1` [Example 127, 4-(2-(2-ethyl-5-methyl-1,2,3,4-tetrahydroisoquinolin-7-yl)-5H-pyrrolo[2,3-b]pyrazin-7-yl)-N, N, 2-trimethylbenzamide] gave an IC50 [1] of 86 nM and an IC50 ([2]; Homo sapiens, HEK293, 72 h) of 3130 nM.
